Assay results from patent US6914045B2, “Glycopeptide antibiotics” (Wyeth Holdings Corporation, priority 2001, dated 2005).
In brackets after ≈: the same amount, converted by molar mass.

Tests used:
Test in all cases: in vitro antibacterial evaluation, MIC by broth dilution
Type in all cases: cell-based
[1] = system: Enterococcus sp.; details: broth dilution, 18 hours at 35° C.; for MIC Enterococcus faecalis (ATCC 29212): strain ATCC 29212; for MIC Enterococcus faecalis (GC 2242): strain GC 2242; for MIC Enterococcus faecium (GC 2243): strain GC 2243; for MIC Enterococcus faecalis (GC 2691): strain GC 2691; for MIC Enterococcus faecalis (GC 3059): strain GC 3059; for MIC Enterococcus faecalis (GC 4552): strain GC 4552; for MIC Enterococcus faecalis (GC 4553): strain GC 4553; for MIC Enterococcus faecalis (GC 4554): strain GC 4554; for MIC Enterococcus faecium (GC 4556): strain GC 4556; for MIC Enterococcus faecium (GC 4557): strain GC 4557; for MIC Enterococcus avium (GC 4558): strain GC 4558; for MIC Enterococcus faecalis (GC 6189): strain GC 6189
In short: (§1)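 Test organisms, which included recent clinical isolates resistant to methicillin, penicillin and/or vancomycin, were inoculated at 5×10^5 CFU/mL into Muller-Hinton II […] containing antibiotic at 64-0.06 μg/mL. Minimum inhibitory concentrations were then read as the lowest level inhibiting growth.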

[2] = system: Escherichia coli
In short: as §1

[3] = system: Staphylococcus sp.; details: broth dilution, 18 hours at 35° C.; for MIC Staphylococcus aureus (GC 1131): strain GC 1131
In short: as §1

[4] = system: Streptococcus sp.; details: broth dilution, 18 hours at 35° C.; for MIC Streptococcus pneumoniae (ATCC 6301): strain ATCC 6301; for MIC Streptococcus pneumoniae (GC 1894): strain GC 1894; for MIC Streptococcus pyogenes (GC 4563): strain GC 4563; for MIC Streptococcus agalactiae (GC 4564): strain GC 4564; for MIC Streptococcus pneumoniae (GC 4565): strain GC 4565
In short: as §1

MIC Enterococcus faecalis (ATCC 29212) ([1]; inoculum 5×10^5 CFU/mL): 8 µg/mL (≈ 5.39 µM)
MIC Enterococcus faecalis (GC 2242) ([1]; inoculum 5×10^5 CFU/mL): 4 µg/mL (≈ 2.69 µM)
MIC Enterococcus faecium (GC 2243) ([1]; inoculum 5×10^5 CFU/mL): 8 µg/mL (≈ 5.39 µM)
MIC Enterococcus faecalis (GC 2691) ([1]; inoculum 5×10^5 CFU/mL): 4 µg/mL (≈ 2.69 µM)
MIC Enterococcus faecalis (GC 3059) ([1]; inoculum 5×10^5 CFU/mL): 8 µg/mL (≈ 5.39 µM)
MIC Enterococcus faecalis (GC 4552) ([1]; inoculum 5×10^5 CFU/mL): 8 µg/mL (≈ 5.39 µM)
MIC Enterococcus faecalis (GC 4553) ([1]; inoculum 5×10^5 CFU/mL): 4 µg/mL (≈ 2.69 µM)
MIC Enterococcus faecalis (GC 4554) ([1]; inoculum 5×10^5 CFU/mL): 4 µg/mL (≈ 2.69 µM)
MIC Enterococcus faecium (GC 4556) ([1]; inoculum 5×10^5 CFU/mL): 8 µg/mL (≈ 5.39 µM)
MIC Enterococcus faecium (GC 4557) ([1]; inoculum 5×10^5 CFU/mL): 8 µg/mL (≈ 5.39 µM)
MIC Enterococcus avium (GC 4558) ([1]; inoculum 5×10^5 CFU/mL): 4 µg/mL (≈ 2.69 µM)
MIC Enterococcus faecalis (GC 6189) ([1]; inoculum 5×10^5 CFU/mL): 2 µg/mL (≈ 1.35 µM)
MIC Enterococcus faecalis (ATCC 29212) [1]: 8 µg/mL (≈ 5.39 µM)
MIC Enterococcus faecalis (GC 2242) [1]: 4 µg/mL (≈ 2.69 µM)
MIC Enterococcus faecium (GC 2243) [1]: 8 µg/mL (≈ 5.39 µM)
MIC Enterococcus faecalis (GC 2691) [1]: 4 µg/mL (≈ 2.69 µM)
MIC Enterococcus faecalis (GC 3059) [1]: 8 µg/mL (≈ 5.39 µM)
MIC Enterococcus faecalis (GC 4552) [1]: 8 µg/mL (≈ 5.39 µM)
MIC Enterococcus faecalis (GC 4553) [1]: 4 µg/mL (≈ 2.69 µM)
MIC Enterococcus faecalis (GC 4554) [1]: 4 µg/mL (≈ 2.69 µM)
MIC Enterococcus faecium (GC 4556) [1]: 8 µg/mL (≈ 5.39 µM)
MIC Enterococcus faecium (GC 4557) [1]: 8 µg/mL (≈ 5.39 µM)
MIC Enterococcus avium (GC 4558) [1]: 4 µg/mL (≈ 2.69 µM)
MIC Enterococcus faecalis (GC 6189) [1]: 2 µg/mL (≈ 1.35 µM)
MIC Escherichia coli (ATCC 25922) ([2]; strain ATCC 25922, 18 hours at 35° C.): >64 µg/mL
MIC Escherichia coli (GC 4559) ([2]; strain GC 4559, 18 hours at 35° C.): >64 µg/mL
MIC Escherichia coli (GC 4560) ([2]; strain GC 4560, 18 hours at 35° C.): 2 µg/mL (≈ 1.35 µM)
MIC Staphylococcus aureus (GC 1131) ([3]; inoculum 5×10^5 CFU/mL): 8 µg/mL (≈ 5.39 µM)
MIC Staphylococcus aureus (ATCC 29213) ([3]; strain ATCC 29213): 4 µg/mL (≈ 2.69 µM)
MIC Staphylococcus aureus (GC 1131) [3]: 8 µg/mL (≈ 5.39 µM)
MIC Staphylococcus aureus (GC 3051) ([3]; strain GC 3051): 4 µg/mL (≈ 2.69 µM)
MIC Staphylococcus aureus (GC 3053) ([3]; strain GC 3053): 4 µg/mL (≈ 2.69 µM)
MIC Staphylococcus aureus (GC 4541) ([3]; strain GC 4541): 4 µg/mL (≈ 2.69 µM)
MIC Staphylococcus aureus (GC 4542) ([3]; strain GC 4542): 2 µg/mL (≈ 1.35 µM)
MIC Staphylococcus aureus-SMITH (GC 4543) ([3]; strain GC 4543): 8 µg/mL (≈ 5.39 µM)
MIC Staphylococcus aureus (GC 4544) ([3]; strain GC 4544): 8 µg/mL (≈ 5.39 µM)
MIC Staphylococcus aureus (GC 4545) ([3]; strain GC 4545): 4 µg/mL (≈ 2.69 µM)
MIC Coagulase Negative Staphylococcus (GC 4547) ([3]; strain GC 4547): 8 µg/mL (≈ 5.39 µM)
MIC Coagulase Negative Staphylococcus (GC 4548) ([3]; strain GC 4548): 2 µg/mL (≈ 1.35 µM)
MIC Coagulase Negative Staphylococcus (GC 4549) ([3]; strain GC 4549): 2 µg/mL (≈ 1.35 µM)
MIC Coagulase Negative Staphylococcus (GC 4551) ([3]; strain GC 4551): 4 µg/mL (≈ 2.69 µM)
MIC Coagulase Negative Staphylococcus (GC 6257) ([3]; strain GC 6257): 2 µg/mL (≈ 1.35 µM)
MIC Streptococcus pneumoniae (ATCC 6301) ([4]; inoculum 5×10^5 CFU/mL): <0.06 µg/mL
MIC Streptococcus pneumoniae (GC 1894) ([4]; inoculum 5×10^5 CFU/mL): <0.06 µg/mL
MIC Streptococcus pyogenes (GC 4563) ([4]; inoculum 5×10^5 CFU/mL): 0.12 µg/mL (≈ 0.0808 µM)
MIC Streptococcus agalactiae (GC 4564) ([4]; inoculum 5×10^5 CFU/mL): <0.06 µg/mL
MIC Streptococcus pneumoniae (GC 4565) ([4]; inoculum 5×10^5 CFU/mL): <0.06 µg/mL
MIC Streptococcus pneumoniae (ATCC 6301) [4]: <0.06 µg/mL
MIC Streptococcus pneumoniae (GC 1894) [4]: <0.06 µg/mL
MIC Streptococcus pyogenes (GC 4563) [4]: 0.12 µg/mL (≈ 0.0808 µM)
MIC Streptococcus agalactiae (GC 4564) [4]: <0.06 µg/mL
MIC Streptococcus pneumoniae (GC 4565) [4]: <0.06 µg/mL
SMILES: CC(c1ccccc1)C1NC(=O)CNC(=O)C(CO)NC(=O)C(C(O)C2CNC(=N)N2C2OC(CO)C(O)C(O)C2O)NC(=O)C(C(O)C2CNC(=N)N2)NC(=O)C(Cc2ccc(OC3OC(CO)C(OC4OC5COC(c6ccc(C=Cc7ccccc7)cc6)OC5C(O)C4O)C(O)C3O)cc2)NC1=O (centres unmarked) [Example 172]
MIC Staphylococcus haemolyticus (GC 4546) ([3]; strain GC 4546): 8 µg/mL (≈ 5.39 µM)
